Data taken from patent US10968224B2, “2,11-diaza-[3.3](2,6)pyridinophane compounds and their application as ligands of essential metal ion based MRI contrast agents and 52MN based PET contrast agents” (DEBRECENI EGYETEM, priority 2015, dated 2021).

Tests used:
[1] = Equilibrium study: stability constants of the Mn(II) complexes and calculated pMn; assay type: physicochemical; conditions: 25° C., 0.15M NaCl; for pMn: calculated from equilibrium constants at pH = 7.4 and cMn = cL = 10^−5 M
Experimental: (§1) During the physico-chemical studies of BP2AM^Pyp and BP2AM^Pro compounds prepared according to Example 1 and 2, their protonation constants, as well as equilibrium behaviour and kinetic inertness of their Mn(II) complexes was studied in detail, and the characteristic relaxivity values of the complexes were determined in the presence and absence of HSA (Human Serum Albumin), at 25 and 37° C. and physiological pH. All studies were performed in the presence of 0.15 M NaCl, the same concentration as that of the electrolyte under physiological conditions.
(§2) The results of equilibrium study are summarized in Table 1, in addition to the protonation constants, total basicity of ligands and stability constants of their Mn(II) complexes, the pMn value calculated for complexes are also represented in the table.
Based on the pMn values presented in Table 1 (calculated using the equilibrium constants at pH=7.4 and cMn=cL=10^−5 M), it can be concluded that the studied Mn(II) complexes are formed in 100% at physiological pH, which is an essential aspect of the practical use.

[2] = Equilibrium study: protonation constants of the ligands; assay type: physicochemical; conditions: 25° C., 0.15M NaCl
Experimental: as §1, §2

[3] = literature values, stated as under the same conditions; cited from earlier work
[4] = cited from earlier work

Row | logKMnL (stability constant of Mn(II) complex) [1] | pMn [1] | logK1 (protonation constant) [2] | logK2 (protonation constant) [2] | logK3 (protonation constant) [2] | logK4 (protonation constant) [2] | ΣlogKi^H (total basicity) [2] | Compound | r1 relaxivity [3] [mM⁻¹ s⁻¹] | Gd(III) ion released, calculated on the basis of experiments ([4]; 25° C.) [%] | Gd(III) ion released during in vivo dissociation ([4]; 37° C.) [%]
1 | 11.47(5) | 7.51 | 8.83(1) | 3.89(2) | 3.05(2) | 2.39(2) | 18.16 | O=C(O)C1CCCN1C(=O)CN1Cc2cccc(n2)CN(CC(=O)N2CCCC2C(=O)O)Cc2cccc(n2)C1 (stereo not shown) [BP2AM^Pro] |  |  | 
2 | 13.58(1) | 8.19 | 9.57(2) | 2.99(2) |  |  | 12.56 | O=C(CN1Cc2cccc(n2)CN(CC(=O)N2CCCCC2)Cc2cccc(n2)C1)N1CCCCC1 [BP2AM^Pyp, 2,11-bis[2-oxo-2-(piperidine-1-il)-ethyl]-2,11-diaza[3.3](2,6)-pyridinophane] |  |  | 
3 |  |  |  |  |  |  |  | CNC[C@H](O)[C@@H](O)[C@H](O)[C@H](O)CO.O=C([O-])CN1CCN(CC(=O)[O-])CCN(CC(=O)O)CCN(CC(=O)[O-])CC1.[Gd+3] [DOTAREM] | 3.83 |  | 
4 |  |  |  |  |  |  |  | CNC[C@H](O)[C@@H](O)[C@H](O)[C@H](O)CO.CNC[C@H](O)[C@@H](O)[C@H](O)[C@H](O)CO.O=C([O-])CN(CCN(CC(=O)[O-])CC(=O)O)CCN(CC(=O)[O-])CC(=O)O.[Gd+3] [MAGNEVIST] | 4.02 | 0.5 | 2.2
